Tested on: Lac161_ORF7
Test: glucose release, glucose oxidase/peroxidase assay
Type: biochemical, metagenome: corn field soil
Details: 100 mM MES pH 6.0, 50 °C (methods print Lac161_ORF3 for this temperature), 30 min

- Km: 1800 µM
SMILES: OC[C@H]1O[C@@H](O[C@H]2[C@H](O)[C@@H](O)C(O)O[C@@H]2CO)[C@H](O)[C@@H](O)[C@H]1O (stereo partly shown) [lactose]

— PMC5342196 (PLoS ONE, 2017)
